# Experimental data: US20060165612A1, “Compositions for hygienic hand disinfection and disinfectant handwashing” (priority 2005, published 2006)
structure (smiles),measurement,value
"CCCCC(CC)COCC(O)CO (stereo not shown) [1-(2-ethylhexyl)glycerol ether, 1-(2-Ethylhexyl)glycerol ether]",solubility in water,0.1 % by weight
